Test results reported in US20120095062A1, “TRICYCLIC COMPOUNDS, COMPOSITIONS, AND METHODS” (Pfizer Inc., priority 2007, published 2012).
Where two headings read alike, the source gives them in different places.

Experiments:
[1] = Plasma exposure (AUC) in the mouse; assay type: in vivo
[2] = tested on: Mouse Collagen-induced arthritis; assay: Therapeutic mouse collagen-induced arthritis (mCIA) model; assay type: in vivo; conditions: mice, dosing day 34 through day 49, read-out: Therapeutic mCIA (ED50 dose)
Source text: Mouse Collagen-induced arthritis is a commonly used chronic, preclinical model of rheumatoid arthritis in which joint swelling and bone destruction occur following immunization with type II collagen. Reduction of disease incidence and severity has been shown previously to be predictive of disease-modification and signs and symptoms mitigation, respectively, in a clinical setting.
In the therapeutic mCIA model, induction of disease incidence and severity was synchronized via LPS stimulation. Male […] mice were immunized with 100 ug of bovine type II collagen (bCII) on day 0. All mice received an intraperitoneal injection of 20 μg of LPS on day 28 and disease was allowed to develop through day 34. At day 34, all mice had disease (incidence=100%) with an average severity score of seven. Dosing of compounds was initiated in the therapeutic mode on day 34 and continued through day 49. Different treatments were compared by measuring the decrease in incidence (i.e., resolution of disease) and the decrease in severity of paw swelling over time.

LPS-induced serum TNFα = LPS-induced serum TNFα suppression, 28-day repeat dose mouse model; assay type: in vivo; conditions: 672 h, mice, oral gavage 28 days
[3] = tested on: IL-6, Human A549 lung epithelial cells; assay: IL-6 inhibition in IL-1β-stimulated A549 cells; assay type: cell-based; conditions: for inhibition: A549, A549 cells, Prednisolone (1 μM) = 100% inhibition control
Description: Human A549 lung epithelial cells (American Type Culture Collection, Rockville, Md.) were cultured in Kaighn's F-12K medium with penicillin-streptomycin (10 U/mL) and 10% heat-inactivated fetal bovine serum (all from Invitrogen, Grand Island, N.Y.). A549 cells were plated at a density of 30,000 cells/well in 96-well plates and incubated overnight at 37° C. and with 5% CO2. The cells were serum-starved by replacing the growth medium with serum-free Kaighn's F-12K medium with penicillin-streptomycin (10 U/mL) and, again, incubating overnight at 37° C. and with 5% CO2. On the third day, the medium was replaced with fresh serum-free medium and the cells were incubated with or without compound (vehicle was DMSO at 0.1% maximum concentration) for approximately 1 hour and then stimulated with 1 ng/mL recombinant human IL-1β (R&D Systems, Minneapolis, Minn.) for 20 hours at 37° C. and with 5% CO2. Cell supernatants were collected for determination of IL-6 levels using MSD (Meso Scale Discovery, Gaithersburg, Md.) 96-well Single Spot plates as per the manufacturer's instructions. Plates were read with an MSD Sector Imager 6000. […] Vehicle was used to define the 0% inhibition control. Percent inhibition for each compound concentration, relative to these controls, was calculated using Excel (Microsoft, Redmond, Wash.). IC50 values were generated using GraFit 5.0 data analysis software (Erithacus Software Ltd., Surrey, UK).

Serum osteocalcin = Serum osteocalcin suppression, 28-day repeat dose mouse model; assay type: in vivo, mice; conditions: for ED50: Mus musculus, 672 h, mice, oral gavage 28 days, serum osteocalcin
[4] = tested on: Cortical bone formation rate; assay: Cortical bone histomorphometry, bone formation rate (BFR); assay type: in vivo, mice; conditions: 28-day repeat dose model; the 11th table
Description: Sigma-Aldrich, St. […] Calcein incorporates into the bone mineral and allows measurement of bone formation rate. Calcein was dissolved in 2% sodium bicarbonate. During the tissue harvest, the left tibiae were excised and cleaned for cortical histomorphometry measurements. After all skin and muscle were removed, tibiae were placed in 70% ethanol (4° C.) in the dark for a minimum of 24 hours. Ground transverse sections were used for histomorphometric analysis of cortical bone. Bones were sectioned using a low-speed saw (lsomet, Buehler, Lake Bluff, Ill.) equipped with a diamond wafer blade. The end of each tibia was removed proximal to tibia-fibula synostosis and a […] cross-section was cut. Using a roughened glass plate and a cork, sections were ground to […] until transparent and all labels were distinguishable under a fluorescent microscope. […] Sigma-Aldrich, St. Louis, Mo.). Sections were mounted using Eukitt Quick Mounting Medium (#03989, Sigma-Aldrich, St. Louis, Mo.) after which coverslip was applied. […] Bone formation rate was calculated by the following equation: (Inter-label width/Label interval)*(Labeled perimeter/Bone perimeter). At least five samples were measured from each treatment group in each study.

TNFα, U937 cells = assay: TNFα inhibition in LPS-stimulated differentiated U937 cells; assay type: cell-based; conditions: Homo sapiens
Description: Cells were differentiated to a monocyte/macrophage phenotype with phorbol 12-myristate 13-acetate (Sigma-Aldrich, St. Louis, Mo.), 20 ng/mL, overnight. […] Following recovery, the cells were scraped, counted, and plated in accordance to the experimental design prior to stimulation with LPS, as described below. U937 cells were differentiated and plated at a density of 200,000 cells/well in 96-well plates. […] Louis, Mo.) for four hours at 37° C. and with 5% CO2. Cell supernatants were collected for determination of TNFα levels using an in-house sandwich-type ELISA. Mouse anti-human TNFα monoclonal antibody (clone 28401.111) and biotinylated goat anti-human TNFα (R&D Systems, Minneapolis, Minn.) were used as the capture and detection antibodies, respectively. Streptavidin-horseradish peroxidase (HRP) (R&D Systems, Minneapolis, Minn.) and K-Blue Substrate/Red Stop (Neogen, Lexington, Ky.) were used as the detection system. Absorbance was measured at 650 nm. TNFα concentrations were interpolated from a human TNFα recombinant protein (R&D Systems, Minneapolis, Minn.) standard curve using a four parameter logistics model by Magellan 4.11 data analysis software (Tecan, Durham, N.C.). […] Vehicle was used to define the 0% inhibition control. Percent inhibition for each concentration of compound, relative to these controls, was calculated using Excel (Microsoft, Redmond, Wash.).

[5] = A549, 20 h, A549 cells, 1 ng/mL IL-1β, 20 hours, read-out: IL-6 IC50

SMILES | AUC(0-4 hr) as share of the AUC(0-24 hr) values [1] | ED50 [2] | ED50 (LPS-induced serum TNFα) | IC50 [3, 5] | inhibition [3] | ED50 (Serum osteocalcin) | Cortical bone formation rate (BFR) EAUC50 [4] | IC50 (TNFα, U937 cells; U-937, 4 h, U937 cells, 100 ng/mL LPS, four hours, read-out: TNFα IC50) | IC50 (TNFα, U937 cells; U-937, value in brackets, footnote a: additional results that were found, read-out: TNFα IC50 (nM), additional result) | IC50 ([3]; A549, value in brackets, footnote a: additional results that were found, read-out: IL-6 IC50 (nM), additional result) | Serum osteocalcin (OC) EAUC50 (Serum osteocalcin; 28-day repeat dose model, the 11th table)
Cc1ncccc1NC(=O)c1ccc2c(c1)CC[C@@H]1C[C@@](O)(C(F)(F)F)CC[C@@]21Cc1ccccc1 [Example 1, (4βS,7R,8αR)-4β-benzyl-7-hydroxy-N-(2-methylpyridin-3-yl)-7-(trifluoromethyl)-4β,5,6,7,8,8α,9,10-octahydrophenanthrene-2-carboxamide] | more than 95% | – | – | – | – | – | – | – | – | – | –
Cc1ncccc1NC(=O)c1ccc2c(c1)CC[C@@H]1C[C@@](O)(CCC(F)(F)F)CC[C@@]21Cc1ccccc1 [Comparator C, (4βS,7R,8αR)-4β-benzyl-7-hydroxy-N-(2-methylpyridin-3-yl)-7-(3,3,3-trifluoropropyl)-4β,5,6,7,8,8α,9,10-octahydrophenanthrene-2-carboxamide] | – | 2 mg/kg | 0.27 mg/kg | 1.1 nM | 82.6% | 1.01 mg/kg | – | – | – | – | –
C[C@]12C=CC(=O)C=C1CC[C@@H]1[C@@H]2[C@@H](O)C[C@@]2(C)[C@H]1CC[C@]2(O)C(=O)CO [Prednisolone] | more than 95% | 1.1 mg/kg | 0.9 mg/kg | 4.2 nM | 102% | 1 mg/kg | 100 ng·h/mL | 14.9 nM | 15.6 nM | 4.6 nM | 560 ng·h/mL
Cc1ncccc1NC(=O)c1ccc2c(c1)[C@H](O)C[C@@H]1C[C@@](O)(C(F)(F)F)CC[C@@]21Cc1ccccc1 [Comparator F, (4βS,7R,8αR,10R)-4β-benzyl-7,10-dihydroxy-N-(2-methylpyridin-3-yl)-7-(trifluoromethyl)-4β,5,6,7,8,8α,9,10-octahydrophenanthrene-2-carboxamide] | – | > 10 mg/kg | 2.11 mg/kg | 7 nM | 83.3% | 1.19 mg/kg | – | – | – | – | –
Cc1ncccc1NC(=O)c1ccc2c(c1)C(=O)C[C@@H]1C[C@@](O)(C(F)(F)F)CC[C@@]21Cc1ccccc1 [Comparator E, (4β,7R,8αS)-4β-benzyl-7-hydroxy-N-(2-methylpyridin-3-yl)-10-oxo-7-(trifluoromethyl)-4β,5,6,7,8,8α,9,10-octahydrophenanthrene-2-carboxamide] | – | 0.5 mg/kg | 0.14 mg/kg | 1.1 nM | 79.7% | 0.17 mg/kg | – | – | – | – | –
Cc1ncccc1NC(=O)c1ccc2c(c1)C=C[C@@H]1C[C@@](O)(C(F)(F)F)CC[C@@]21Cc1ccccc1 [Comparator I] | – | 17 mg/kg | 0.73 mg/kg | 2.8 nM | 67.5% | 5.2 mg/kg | – | – | – | – | –
Cc1ncc(NC(=O)c2ccc3c(c2)CC[C@@H]2C[C@@](O)(CCC(F)(F)F)CC[C@@]32Cc2ccccc2)c(C)n1 [Comparator J, (4βS,7S,8αR)-4β-benzyl-N-(2,4-dimethylpyrimidin-5-yl)-7-hydroxy-7-(3,3,3-trifluoropropyl)-4β,5,6,7,8,8α,9,10-octahydrophenanthrene-2-carboxamide] | – | 3 mg/kg | 0.09 mg/kg | 291 nM | 55% | 0.73 mg/kg | – | – | – | – | –
